Data: patent US20100204460A1, “NATURAL BRASSINOSTEROIDS FOR USE FOR TREATING HYPERPROLIFERATION, TREATING PROLIFERATIVE DISEASES AND REDUCING ADVERSE EFFECTS OF STEROID DYSFUNCTION IN MAMMALS, PHARMACEUTICAL COMPOSITION AND ITS USE” (priority 2007, published 2010)

Experiments:
Assay type in all cases: cell-based
DU-145 cells = experiment: TUNEL detection of apoptosis, DU-145; details: IC50 concentration, control 0.0 ± 0.0
Description: TdT-Mediated dUTP nick end labeling (TUNEL) detection of apoptosis index. For detection of apoptotic cells, the TUNEL assay was used. […] After period of treatment, the cells were washed with PBS and fixed on the slides with cold acetone-methanol (1:1, v/v) for 10 min. Apoptosis-induced nuclear DNA fragmentation was detected by terminal deoxynucleotidyl transferase-mediated UTP nick end labeling (TUNEL) technique according to the producer protocol (In Situ Cell Death Detection Kit; Roche Diagnostics, Mannheim, Germany). The cells were then washed three times in PBS and stained with 4′-6-diamidino-2-phenylindole (DAPI; 50 μg/ml; Sigma, St. Louis, Mo., USA) for 10 min in the dark. The coverslips with cells were washed in deionized water and mounted on glass slides, using the hydrophilic medium Mowiol (Calbiochem, Fremont, Calif., USA) in glycerol-PBS (1:3, v/v) for fluorescence. Cells were visualized using fluorescence microscopy and compared with control cells. TUNEL staining achieved to confirm apoptosis in all cell lines.

MCF-7 cells = experiment: Cell cycle distribution by flow cytometry, MCF-7; details: IC50, 24 h; for Cell cycle distribution S: control 14%; for Apoptosis subG1 fraction: control 17%; for Cell cycle distribution G2/M: control 26%; for Cell cycle distribution G1: control 60%
From the text: In the MCF-7 breast cancer cell line that has been the most widely studied experimental cell system, the typical growth inhibitory response to antiestrogens is decrease in the proportion of cells synthesising DNA (S phase) after antiestrogen treatment. This decrease in S phase coincides with an increase in the proportion of cells in G0/G1 phase. The activity of the androgen receptor (AR) is also regulated by alterations in cell signaling. There has been reported ligand independent activation of AR in prostate cancer cells by different growth factors. As the AR can be activated in the absence of hormone, it appears that the conditions may be more restricted than those observed for ER. Use of physiologic doses of ligand (dihydrotestosterone, DHT) is of importance as the LNCaP cells proliferate only at DHT concentration of 10^−9 M or lower. […] In contrast to proliferation, transactivation of AR specific target genes (e.g. PSA) continues to increase with DHT doses of 10^−10 M and higher. It might be accepted for estrogen or androgen receptors as stronger cytotoxic activities of brassinosteroids 9 or 6 on hormone-sensitive (MCF-7, LNCaP) compared to hormone-insensitive (MDA-MB-468, DU-145) cell lines were found. Therefore we explored the possibility of cell cycle perturbation by BRs in different cancer cell lines. Flow cytometry was used to evaluate the number of cells in the particular phases of the cell cycle, including subG1 peak detection. Control and treated cells were washed twice with cold PBS and centrifuged at 360×g for 10 min at 4° C., and fixed with chilled ethanol (70%; v/v) by low-speeded vortexing. For detection of DNA content analysis, propidium iodide staining was used. The cells were analyzed using a FACSCalibur flow cytometer (BD Biosciences, San Jose, Calif.).
Flow-cytometric detection of apoptosis. Several studies have declared that the induction of apoptosis may be cell cycle-dependent. Therefore, in our next series of experiments, we tested if brassinosteroids 9 or 6 cause apoptosis of the breast and prostate cancer cells via cell cycle blockage. From this reason we carried out DNA cell cycle analysis by flow cytometry based on detection of endonucleolytic DNA degradation that results in extraction of low molecular weight DNA from the cells. […] The subG1 peak containing apoptotic bodies was however not observed in MCF-7 cells.

MDA-MB-468 cells = experiment: BrdU incorporation assay, MDA-MB-468
Description: To analyze if the inhibition in cell viability was due to decreased cell proliferation, we measured DNA synthesis in the presence of BRs. The effect of brassinosteroids 9 or 6 on cell proliferation and DNA replication of the cancer cells was measured by BrdU incorporation assay. This immunostaining was based on nuclear incorporation of bromodeoxyuridine (BrdU) into DNA in place of thymidine during the S-phase of cell cycle detected by anti-specific-BrdU antibody following membrane permeabilization as described previously (Gratzner, Science. 1982, 218, 474-475). […] The BrdU reagent (0.1 mM; Sigma, MO, USA) was added in culture medium with cells for 4 h in a CO2 incubator at 37° C. After incubation the cells were washed three times with PBS and fixed with cold acetone-methanol (1:1, v/v) for 10 min. The cells were denaturated by HCl (1:5; Lachema, Czech Republic) and incubated with anti-specific-BrdU antibody (diluted 1:100 in PBS; clone Bu20a, DakoCytomation, Denmark) for 60 min in the dark. The cells were then washed three times in PBS (10 mM, pH 7.4) and incubated with goat anti-mouse fluorescein isothiocyanate (FITC)-labeled secondary antibody (Sigma, MO, USA) for 60 min in the dark. The cells were then washed three times in PBS and incubated with DAPI (50 μg/mL; Sigma, MO, USA) for 10 min in the dark. The coverslips with cells were washed in deionized water and mounted on glass slides, using the hydrophilic medium Mowiol (Calbiochem, Calif., USA) in glycerol-PBS (1:3, v/v) for fluorescence. Cells were visualized using microscopy and those incorporating BrdU (S phase cells) were counted in at least 25 fields and compared with the total number of all cells.

[1] = treated at IC50 for 6 h, control 64 ± 1.5
[2] = treated at IC50 for 12 h, control 58 ± 3.0
[3] = treated at IC50 for 24 h, control 64 ± 5.6

SMILES	percentage of TUNEL positive cells (DU-145 cells; 6 h)	percentage of TUNEL positive cells (DU-145 cells; 12 h)	percentage of TUNEL positive cells (DU-145 cells; 24 h)	Cell cycle distribution S (MCF-7 cells)	Apoptosis subG1 fraction (MCF-7 cells)	Cell cycle distribution G2/M (MCF-7 cells)	Cell cycle distribution G1 (MCF-7 cells)	percentage of proliferating BrdU positive cells (MDA-MB-468 cells; [1])	percentage of proliferating BrdU positive cells (MDA-MB-468 cells; [2])	percentage of proliferating BrdU positive cells (MDA-MB-468 cells; [3])
CC(C)[C@@H](C)[C@@H](O)[C@H](O)[C@@H](C)[C@H]1CC[C@H]2[C@@H]3COC(=O)[C@H]4C[C@H](O)[C@H](O)C[C@]4(C)[C@H]3CC[C@]12C [Brassinosteroid 6, 24-Epibrassinolide]	4.7 ± 2.5 %	5.6 ± 2.0 %	5.1 ± 5.6 %	7%	13%	12%	81%	53 ± 4.4 %	55 ± 3.5%	43 ± 3.6 %
CC[C@@H](C(C)C)[C@@H](O)[C@H](O)[C@@H](C)[C@H]1CC[C@H]2[C@@H]3CC(=O)[C@H]4C[C@H](O)[C@H](O)C[C@]4(C)[C@H]3CC[C@]12C [Brassinosteroid 9, 28-Homocastasterone]	6.0 ± 2.0 %	7.5 ± 4.0 %	8.0 ± 4.0 %	11%	15%	9%	80%	55 ± 5.0%	48 ± 4.6%	28 ± 4.6 %
